The values that follow come from patent US10767179B2, “MicroRNA composition for the treatment of neuroblastoma” (THE BOARD OF REGENTS OF THE UNIVERSITY OF TEXAS SYSTEM, priority 2014, dated 2020).

Data set [1] relates to BE(2)-C cells. In words: Cell Viability Assay (CellTiter-Glo). The format is cell-based. Conditions: transfected with mimic for 4 days. How it is done:
Cell Viability Assay. Cells were plated in 96-well format and treated as specified. After culturing for 120 h, cell viability was determined using the CellTiter-Glo Luminescent Cell Viability Assay (Promega).
On the technique in general: In ATP-based viability assays light output follows the ATP content of the culture.

Data set [2] concerns 3′UTR of STAT3. In words: Luciferase Reporter Assay, STAT3 3'UTR. The format is cell-based, human. Conditions: BE(2)-C cells, 25 nM mimic, 72 h. From the text: (§1) Luciferase Reporter Assay. The segments of the wildtype 3′ UTRs for CDK4 and STAT3 containing the predicted target sites of miR-506-3p and miR-124-3p were cloned from human genomic DNA. Mutant constructs were generated with the seed target site (GUGCCUU (SEQ ID NO:4)) replaced by CACGGUU (SEQ ID NO:5). The 3′ UTRs were cloned downstream of the firefly luciferase coding sequences into the pmirGLO dual-luciferase reporter (Promega), a vector containing both firefly and Renilla luciferase cDNAs under the control of separate promoter/terminator systems. The firefly luciferase was used as the primary reporter for miRNA regulation of the 3′ UTR. The Renilla luciferase is an internal control for normalization. BE(2)-C cells were co-transfected with luciferase reporters (0.8 ng/μl) and miRNA mimics or control oligonucleotide (oligo) (25 nM). Luciferase activities were measured after 72 h using the Dual-Glo Luciferase Assay System (Promega). Firefly luciferase activity was normalized to Renilla luciferase activity to evaluate the effect of the miRNAs.

Data set [3] has as its system STAT3. In words: mRNA expression profiling (Illumina microarray). The format is cell-based. Conditions: change of expression induced by miRNA overexpression. How it is done: (§2) Mrna And Mirna Expression. Total RNA was isolated as previously described (Du et al., Mol Cancer Res, 2009, 7(8):1234-43). mRNA expression profiling was done using the Illumina mRNA WG-6 v3 microarray platform. miRNA expression was measured by qRT-PCR using TaqMan microRNA Assays (Life Technologies) with average expression of RNU44 RNA, RNU19 RNA, GAPDH mRNA and 18s rRNA used as controls for normalizing RNA loading.

The subject of data set [4] is RHOQ. In words: mRNA expression profiling (Illumina microarray). The data set is classed as cell-based. Conditions: change of expression induced by miRNA overexpression. How it is done:
as §2

Data set [5] relates to AHR. Description: mRNA expression profiling (Illumina microarray). The format is cell-based. Conditions: change of expression induced by miRNA overexpression. The procedure:
as §2

For data set [6], the system named is SHC3. In words: mRNA expression profiling (Illumina microarray). Conditions: change of expression induced by miRNA overexpression. The data set is classed as cell-based. The procedure:
as §2

Data set [7] concerns PML. In words: mRNA expression profiling (Illumina microarray). The format is cell-based. Conditions: change of expression induced by miRNA overexpression. How it is done: as §2
Data set [8] relates to CDK4. Description: mRNA expression profiling (Illumina microarray). The format is cell-based. Conditions: change of expression induced by miRNA overexpression. How it is done:
as §2

For data set [9], the system named is BDNF. Description: mRNA expression profiling (Illumina microarray). The data set is classed as cell-based. Conditions: change of expression induced by miRNA overexpression. The procedure: as §2
In data set [10] the test system is CEBPA. Description: mRNA expression profiling (Illumina microarray). The data set is classed as cell-based. Conditions: change of expression induced by miRNA overexpression. The procedure:
as §2

For data set [11], the system named is THRB. In words: mRNA expression profiling (Illumina microarray). Conditions: change of expression induced by miRNA overexpression. The format is cell-based. The procedure: as §2
Data set [12] concerns RARG. In words: mRNA expression profiling (Illumina microarray). The format is cell-based. Conditions: change of expression induced by miRNA overexpression. How it is done:
as §2

Data set [13] concerns BE(2)-C cells. In words: High-content screen: detection and quantification of neurite outgrowth. The format is cell-based. Also noted: key: neurite length normalized to the mean of its plate. Conditions: 25 nM miRNA mimic, 4 days transfection, normalized to plate mean. How it is done: FIG. 2A-2C. HCS screening of miRNA mimics identifies miRNAs that induce neurite outgrowth in BE(2)-C cells. (A-B) 2,500 cells were reverse-transfected with 25 nM miRNA mimics in 96-well plates. After 4 days transfection, relative neurite lengths were quantified as above. (A) The distribution of post-normalized neurite length measurements (grey histogram) for individual miRNA mimics from the screen and the fitted Gamma distribution curve (␣=3.27, ┘=0.444) (B) Correlation between two independent neurite length measurements for one library plate. Cells were transfected with 25 nM mimics in two independent 96-well plates. Normalized neurite lengths were measured as above. Correlation of neurite length between the two plates was analyzed using two-tailed Pearson Correlation with p<0.05 considered significant. (C) The distribution of the neurite lengths for untreated BE(2)-C cells. 2,500 Cells were plated into each well in 96 well plates. After 4 days of culture, neurite lengths were analyzed as above. Shown are the neurite length distribution histogram, the empirical density curve, and the fitted Gamma distribution curve (␣=30.23, ␣=0.033).
Detection and Quantification of Neurite Outgrowth. Cells were plated and treated in 96-well plates. For detecting neurite outgrowth, cells were placed into ZOOM IncuCyte Imaging System (Essen BioScience) and cell images were taken under 20× microscopic magnification. For detecting neurite outgrowth in a time-dependent manner, cell images were taken every 6 h. The neurite lengths associated with each treatment were calculated using the neurite definition defined for each specific cell line using the NeuroTrack system (Essen BioScience).
Analysis of HCS Data. The relative neurite length associated with cells in each well on the screen plates was determined as above. In order to allow for plate-to-plate comparison, neurite length associated with each well in each plate was first internally normalized to the mean of the corresponding plate, and multiple screen plates were then aggregated together to generate the neurite length distribution. The data were then further analyzed to determine the distribution of the unaffected cells as described below, and to identify differentiation-inducing miRNA mimics.
Statistical Analysis. For HCS, p-value for neurite length associated with each miRNA mimic was evaluated by assuming the distribution of neurite lengths follows Gamma distribution, and false Discovery Rate (FDR) was determined by Benjamini-Hochberg correction method for multiple tests (Benjamin, Journal of the Royal Statistical Society Series B (Methodological), 1995, 57(1):12). […] For all other conditions, the statistical significance for each treatment was determined using t-test by comparing the treatment group with control, with p<0.05 considered statistically significant.

Data set [14] relates to BE(2)-C cells. Description: Endogenous miRNA expression by qRT-PCR in differentiated cells. The data set is classed as cell-based. Conditions: differentiated BE(2)-C cells. How it is done: as §2
(In general: Real-time PCR tracks product formation cycle by cycle.)

For data set [15], the system named is BE(2)-C cells. In words: Colony Formation Assay. The format is cell-based. Conditions: 25 nM mimic, 14 days. The procedure: Colony Formation Assay. Cells were transfected as specified and cultured overnight. 500 cells were re-plated in 10 cm dishes. After 14 days, colonies were visualized by staining with 1% crystal violet. Colony numbers and sizes were analyzed using Image J (NIH, Bethesda, Md.).

Data set [16] has as its system 3′UTR of CDK4. In words: Luciferase Reporter Assay, CDK4 3'UTR. The format is cell-based, human. Conditions: BE(2)-C cells, 25 nM mimic, 72 h.
From the text: as §1

In the case of “hsa-miR-506-3p: miRNA mimic (Dharmacon), mature sequence UAAGGCACCCUUCUGAGUAGA (SEQ ID NO: 1) (UAAGGCACCCUUCUGAGUAGA(1); as printed in the source, key not given here)”, in data set [1], the “Cell viability when reaching plateau” value is recorded as 6.3±0.3%. Besides, the “Target site in the 3′UTR of STAT3 by luciferase reporter” value in data set [2] is reported as “validated”. In addition, the “Gene expression STAT3” value in [3] worked out at 0.75. Also, the “Gene expression RHOQ” value in data set [4] is recorded as 1.07. For the same substance, the “Gene expression AHR” value in data set [5] was found to be 1.19. Besides, the “Gene expression SHC3” value in data set [6] was found to be 1.08. The “Gene expression PML” value in data set [7] was determined as 1.01. The “Gene expression CDK4” value in data set [8] is on record as 0.39. The “Gene expression BDNF” value in data set [9] came to 1.04. Besides, the “Gene expression CEBPA” value in [10] amounted to 0.88. For the same substance, the “Gene expression THRB” value in data set [11] is 1.04. Also, in data set [12], the “Gene expression RARG” value amounted to 1.02. Also, the “Neurite length (mean ± SD)” value in data set [13] came to 10.04 ± 3.41. The “Overexpression of the endogenous miRNA in differentiated cells” value in data set [14] stood at 380.1±48.4 fold. For the same substance, the Colony formation entry in [15] is given as “significantly reduce the ability of BE(2)-C to form colonies”. The “Target site in the 3′UTR of CDK4 by luciferase reporter” value in [16] is “validated”.
